Among the data in patent publication US20240383856A1 (Zedira GmbH, priority 2021, published 2024) are IC50, logD and Papp values, retold here.

pIC50: −log10 of the molar value. A value given as a limit tells only on which side of the number the result lay.

For data set [1], the target named is T1, recombinant human transglutaminase 2 (Homo sapiens, UniProt P21980).
T1 construct: purchased Zedira T022
T1 sequence (P21980 1-687): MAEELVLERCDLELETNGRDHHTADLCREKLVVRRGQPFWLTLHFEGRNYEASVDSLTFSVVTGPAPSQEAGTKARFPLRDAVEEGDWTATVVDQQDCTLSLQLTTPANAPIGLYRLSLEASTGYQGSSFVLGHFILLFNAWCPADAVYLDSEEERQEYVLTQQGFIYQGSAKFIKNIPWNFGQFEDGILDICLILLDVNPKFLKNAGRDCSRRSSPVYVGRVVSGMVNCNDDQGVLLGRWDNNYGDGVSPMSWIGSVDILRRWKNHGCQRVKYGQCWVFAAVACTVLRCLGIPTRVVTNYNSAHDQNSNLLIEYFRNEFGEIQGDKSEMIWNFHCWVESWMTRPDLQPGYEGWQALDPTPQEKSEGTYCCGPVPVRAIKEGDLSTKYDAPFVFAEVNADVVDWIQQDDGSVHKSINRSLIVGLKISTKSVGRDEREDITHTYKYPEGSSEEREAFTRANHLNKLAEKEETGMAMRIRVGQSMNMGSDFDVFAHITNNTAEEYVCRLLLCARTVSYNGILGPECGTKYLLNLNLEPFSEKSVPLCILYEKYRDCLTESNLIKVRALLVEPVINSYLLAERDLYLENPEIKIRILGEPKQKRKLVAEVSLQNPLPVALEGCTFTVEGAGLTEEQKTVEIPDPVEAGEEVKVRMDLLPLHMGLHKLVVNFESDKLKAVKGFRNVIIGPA
In words: Transglutaminase assay (DCC-assay): incorporation of dansylcadaverine into dimethylcasein. In kind it is biochemical. The following applies: recombinant human TG2 10 nM; dansylcadaverine incorporation into dimethylcasein; read-out: IC50 TG2. Summed up:
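IC50 is the inhibitor level that blocks 50% of initial activity. Activity is the fluorescence slope (λex 330, λem 500 nm) between 20 and 30 min of a 37 °C run, relative to a 2% DMSO control. The enzyme is recombinant human tissue transglutaminase, 10 nM final, tested against a 1:2 inhibitor dilution series in a pH 8.0 mix with 10 mM CaCl2, 10 mM glutathione, 16.7 µM dansylcadaverine and 4 µM N,N-dimethylcasein.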

The nature of data set [2]: logD by shake flask method (octanol / PBS pH 7.4, HPLC). In kind it is physicochemical. The following applies: octanol / PBS pH 7.4, shake flask. Summed up:
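LogD obtained by HPLC measurement of how the compound distributes between PBS (pH 7.4) and octanol in a shake-flask experiment.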

Data set [3] is described as follows: Caco-2 permeability assay (CacoReady kit). The class given is in vitro ADME. The note with it: human, Caco-2, Caco-2 barrier, CacoReady kit; above 1×10^−6 cm/s classified as permeable. In a few lines:
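Intestinal permeability modelled with kit-supplied Caco-2 barriers, run as the maker specifies; each compound reported as Papp.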
A general note: Passage across Caco-2 layers is used to estimate intestinal permeability.

Turning to `CC1(C)[C@@H]2CC[C@@]1(C)[C@@H](NC(=O)Cn1cccc(NC(=O)[C@H](CCC(=O)C(N)=O)NC(=O)c3cc4ccccc4o3)c1=O)C2` [II-150, (S)-2-(benzofuran-2-carboxamido)-5-oxo-N1-(2-oxo-1-(2-oxo-2-((1R,2S,4R)-1,7,7-trimethylbicyclo[2.2.1]heptan-2-ylamino)ethyl)-1,2-dihydropyridin-3-yl)hexanediamide], in data set [1], the pIC50 (usually the negative decadic logarithm of the IC50, by convention in mol/L) was 6.40 to 7.40. In addition, in data set [2], the logD – broadly, lipophilicity at a set pH, counting ionised and neutral species – lay in the range of 1 to 3. Also, the Papp – broadly, the rate of passage across a membrane or cell layer, normalised by area and donor concentration – in data set [3] was in the range of 1 to 10 ×10⁻⁶ cm/s.

For `Cc1c(C(=O)N[C@@H](CCC(=O)C(N)=O)C(=O)Nc2cccn(CC(=O)N[C@H]3C[C@H]4CC[C@]3(C)C4(C)C)c2=O)oc2ccccc12` [II-151, (S)-2-(3-methylbenzofuran-2-carboxamido)-5-oxo-N1-(2-oxo-1-(2-oxo-2-((1R,2S,4R)-1,7,7-trimethylbicyclo[2.2.1]heptan-2-ylamino)ethyl)-1,2-dihydropyridin-3-yl)hexanediamide], the negative-log IC50 (pIC50) in data set [1] is 6.40 to 7.40. The same molecule showed a logD in data set [2] of 1 to 3. The Papp in data set [3] was in the range of 1 to 10 ×10⁻⁶ cm/s.

On to `CNC(=O)C(=O)CC[C@H](NC(=O)c1snnc1C)C(=O)Nc1cccn(CC(=O)N[C@@H]2C[C@H]3CC[C@@H]2C3)c1=O` [II-152, (S)-N1-(1-(2-((1R,2R,4S)-bicyclo[2.2.1]heptan-2-ylamino)-2-oxoethyl)-2-oxo-1,2-dihydropyridin-3-yl)-N6-methyl-2-(4-methyl-1,2,3-thiadiazole-5-carboxamido)-5-oxohexanediamide], for which, in data set [1], the pIC50 is 6.40 to 7.40. For the same molecule, in data set [2], the logD is below 1. Moreover, in data set [3], the Papp is below 1 ×10⁻⁶ cm/s.

For the molecule `CNC(=O)C(=O)CC[C@H](NC(=O)c1ccnn1C)C(=O)Nc1cccn(CC(=O)N[C@@H]2C[C@H]3CC[C@@H]2C3)c1=O` [II-153, (S)-N1-(1-(2-((1R,2R,4S)-bicyclo[2.2.1]heptan-2-ylamino)-2-oxoethyl)-2-oxo-1,2-dihydropyridin-3-yl)-N6-methyl-2-(1-methyl-1H-pyrazole-5-carboxamido)-5-oxohexanediamide], the pIC50 in data set [1] is 5.60 to 6.40. Also, the logD in data set [2] is below 1. The same molecule yielded a Papp in data set [3] below 1 ×10⁻⁶ cm/s.

As to `CNC(=O)C(=O)CC[C@H](NC(=O)c1sc(C(F)(F)F)nc1C)C(=O)Nc1cccn(CC(=O)N[C@@H]2C[C@@H]3CC[C@H]2C3)c1=O` [II-154, (S)-N1-(1-(2-((1S,2R,4R)-bicyclo[2.2.1]heptan-2-ylamino)-2-oxoethyl)-2-oxo-1,2-dihydropyridin-3-yl)-N6-methyl-2-(4-methyl-2-(trifluoromethyl)thiazole-5-carboxamido)-5-oxohexanediamide], the pIC50 in data set [1] is 6.40 to 7.40. The molecule also came in with a logD in data set [2] of 1 to 3. This molecule also displayed a Papp in data set [3] of 1 to 10 ×10⁻⁶ cm/s.

For `CNC(=O)C(=O)CC[C@H](NC(=O)c1cc(Cl)sc1Cl)C(=O)Nc1cccn(CC(=O)N[C@@H]2C[C@@H]3CC[C@H]2C3)c1=O` [II-155, (S)-N1-(1-(2-((1S,2R,4R)-bicyclo[2.2.1]heptan-2-ylamino)-2-oxoethyl)-2-oxo-1,2-dihydropyridin-3-yl)-2-(2,5-dichlorothiophene-3-carboxamido)-N6-methyl-5-oxohexanediamide], in data set [1], the pIC50 was above 7.40. In data set [2], the logD was 1 to 3. In addition, the Papp in data set [3] was 1 to 10 ×10⁻⁶ cm/s.

Consider `CNC(=O)C(=O)CC[C@H](NC(=O)c1snnc1C)C(=O)Nc1cccn(CC(=O)N[C@@H]2C[C@@H]3CC[C@H]2C3)c1=O` [II-156, (S)-N1-(1-(2-((1S,2R,4R)-bicyclo[2.2.1]heptan-2-ylamino)-2-oxoethyl)-2-oxo-1,2-dihydropyridin-3-yl)-N6-methyl-2-(4-methyl-1,2,3-thiadiazole-5-carboxamido)-5-oxohexanediamide], for which the negative logarithm of the IC50 (pIC50) in data set [1] was 6.40 to 7.40. For the same molecule, the logD in data set [2] was below 1. In data set [3], this molecule showed a Papp below 1 ×10⁻⁶ cm/s.

`CNC(=O)C(=O)CC[C@H](NC(=O)c1cnnn1C)C(=O)Nc1cccn(CC(=O)N[C@@H]2C[C@@H]3CC[C@H]2C3)c1=O` [II-157, (S)-N1-(1-(2-((1S,2R,4R)-bicyclo[2.2.1]heptan-2-ylamino)-2-oxoethyl)-2-oxo-1,2-dihydropyridin-3-yl)-N6-methyl-2-(1-methyl-1H-1,2,3-triazole-5-carboxamido)-5-oxohexanediamide]: the pIC50 in data set [1] is 6.40 to 7.40. In addition, the logD in data set [2] was below 1. The same molecule displayed an apparent permeability coefficient (Papp) in data set [3] below 1 ×10⁻⁶ cm/s.

Turning to `CNC(=O)C(=O)CC[C@H](NC(=O)c1ccnn1C)C(=O)Nc1cccn(CC(=O)N[C@@H]2C[C@@H]3CC[C@H]2C3)c1=O` [II-158, (S)-N1-(1-(2-((1S,2R,4R)-bicyclo[2.2.1]heptan-2-ylamino)-2-oxoethyl)-2-oxo-1,2-dihydropyridin-3-yl)-N6-methyl-2-(1-methyl-1H-pyrazole-5-carboxamido)-5-oxohexanediamide], the pIC50 in data set [1] is 6.40 to 7.40. This molecule had a logD in data set [2] below 1. In data set [3], this molecule showed a Papp below 1 ×10⁻⁶ cm/s.

For the molecule `CNC(=O)C(=O)CC[C@H](NC(=O)c1sc(C(F)(F)F)nc1C)C(=O)Nc1cccn(CC(=O)N[C@H]2C[C@H]3CC[C@]2(C)C3(C)C)c1=O` [II-159, (S)-N1-methyl-5-(4-methyl-2-(trifluoromethyl)thiazole-5-carboxamido)-2-oxo-N6-(2-oxo-1-(2-oxo-2-((1R,2S,4R)-1,7,7-trimethylbicyclo[2.2.1]heptan-2-ylamino)ethyl)-1,2-dihydropyridin-3-yl)hexanediamide], in data set [1], the pIC50 was 6.40 to 7.40. This molecule also showed a logD in data set [2] of 1 to 3. Also, in data set [3], the Papp is 1 to 10 ×10⁻⁶ cm/s.

On to `CNC(=O)C(=O)CC[C@H](NC(=O)c1cc(Cl)sc1Cl)C(=O)Nc1cccn(CC(=O)N[C@H]2C[C@H]3CC[C@]2(C)C3(C)C)c1=O` [II-160, (S)-2-(2,5-dichlorothiophene-3-carboxamido)-N6-methyl-5-oxo-N1-(2-oxo-1-(2-oxo-2-((1R,2S,4R)-1,7,7-trimethylbicyclo[2.2.1]heptan-2-ylamino)ethyl)-1,2-dihydropyridin-3-yl)hexanediamide], for which the pIC50 in data set [1] was 6.40 to 7.40. In addition, the logD in data set [2] was in the range of 1 to 3. In addition, the Papp in data set [3] lay in the range of 1 to 10 ×10⁻⁶ cm/s.

For the molecule `CNC(=O)C(=O)CC[C@H](NC(=O)c1snnc1C)C(=O)Nc1cccn(CC(=O)N[C@H]2C[C@H]3CC[C@]2(C)C3(C)C)c1=O` [II-161, (S)-N1-methyl-5-(4-methyl-1,2,3-thiadiazole-5-carboxamido)-2-oxo-N6-(2-oxo-1-(2-oxo-2-((1R,2S,4R)-1,7,7-trimethylbicyclo[2.2.1]heptan-2-ylamino)ethyl)-1,2-dihydropyridin-3-yl)hexanediamide], in data set [1], the pIC50 is 6.40 to 7.40. In addition, in data set [2], the logD is below 1. This molecule also registered an apparent permeability coefficient (Papp) in data set [3] below 1 ×10⁻⁶ cm/s.

As to `CNC(=O)C(=O)CC[C@H](NC(=O)c1cnnn1C)C(=O)Nc1cccn(CC(=O)N[C@H]2C[C@H]3CC[C@]2(C)C3(C)C)c1=O` [II-162, (S)-N1-methyl-5-(1-methyl-1H-1,2,3-triazole-5-carboxamido)-2-oxo-N6-(2-oxo-1-(2-oxo-2-((1R,2S,4R)-1,7,7-trimethylbicyclo[2.2.1]heptan-2-ylamino)ethyl)-1,2-dihydropyridin-3-yl)hexanediamide], the negative logarithm of the IC50 (pIC50) in data set [1] is 6.40 to 7.40. The molecule further displayed a logD in data set [2] below 1. In addition, the Papp in data set [3] is below 1 ×10⁻⁶ cm/s.

As to `CNC(=O)C(=O)CC[C@H](NC(=O)c1ccnn1C)C(=O)Nc1cccn(CC(=O)N[C@H]2C[C@H]3CC[C@]2(C)C3(C)C)c1=O` [II-163, (S)-N1-methyl-5-(1-methyl-1H-pyrazole-5-carboxamido)-2-oxo-N6-(2-oxo-1-(2-oxo-2-((1R,2S,4R)-1,7,7-trimethylbicyclo[2.2.1]heptan-2-ylamino)ethyl)-1,2-dihydropyridin-3-yl)hexanediamide], in data set [1], the pIC50 is 6.40 to 7.40. Moreover, in data set [2], the logD is below 1. Moreover, in data set [3], the Papp is below 1 ×10⁻⁶ cm/s.

In the case of `CNC(=O)C(=O)CC[C@H](NC(=O)c1c[nH]cc1C(C)(C)C)C(=O)Nc1cccn(CCC23CC4CC(CC(C4)C2)C3)c1=O` [II-164], the negative logarithm of the IC50 (pIC50) in data set [1] was 5.60 to 6.40. In data set [2], the log distribution coefficient (logD) lay in the range of 3 to 5. The same molecule came in with an apparent permeability coefficient (Papp) in data set [3] of 1 to 10 ×10⁻⁶ cm/s.

`CNC(=O)C(=O)CC[C@H](NC(=O)c1cc(C#N)cn1C)C(=O)Nc1cccn(CCCC23CC4CC(CC(C4)C2)C3)c1=O` [II-165]: in data set [1], the pIC50 was 5.60 to 6.40. The molecule also gave a logD in data set [2] of 3 to 5. In addition, in data set [3], the Papp lay within 1 to 10 ×10⁻⁶ cm/s.

`CNC(=O)C(=O)CC[C@H](NC(=O)c1ncc(OC)o1)C(=O)Nc1cccn(CCC(=O)NC2C3CC4CC(C3)CC2C4)c1=O` (stereo partly drawn) [II-166, (S)-N1-(1-(3-(2-adamantylamino)-3-oxopropyl)-2-oxo-1,2-dihydropyridin-3-yl)-2-(5-methoxyoxazole-2-carboxamido)-N6-methyl-5-oxohexanediamide]: the pIC50 in data set [1] is 5.60 to 6.40. Besides, in data set [2], the logD was in the range of 1 to 3. This molecule also gave an apparent permeability (Papp) in data set [3] of 1 to 10 ×10⁻⁶ cm/s.
